{"source": "paper PMC9223764", "about": "“In Vitro Selection and Characterization of HIV-1 Variants with Increased Resistance to LP-40, Enfuvirtide-Based Lipopeptide Inhibitor” (International Journal of Molecular Sciences, 2022)", "format_in_all_cases": "cell-based", "conditions_in_all_cases": "Table 3", "key": {"[1]": {"tested_on": "HIV-1 NL4-3 gp41 L33S pseudovirus", "method": "(§1) Viral RNA was extracted from the supernatant, and, after reverse transcription, the cDNA was amplified using PCR. These amplified DNA were connected to the T-Easy vector and transformed to Trans 2-Blue Chemically Competent Cells. These sequences were determined via sequencing. The expression plasmids, which contained different HIV-1NL4-3 Env mutants, were constructed using DNA assembly (NEBuilder® HiFi DNA Assembly Master Mix). In brief, two primers were used to amplify Env, and the other two primers were used to amplify the vector fragment. The products of PCR were purified with a 20–25 bp overlap in the terminal of Env and the vector fragment Env and the vector fragment were added to the DNA assembly master mix at […] for 15 min and then transformed to Trans 2-Blue Chemically Competent Cells. Additionally, a single-point mutation was generated using double-stranded DNA templates and a selection of mutants with a restriction enzyme (DpnI) as described previously.\n(§2) The infectivity of HIV Env mutants and the inhibitory activities of membrane fusion inhibitors on mutants in TZM-bl cells were measured using a single-cycle infection assay as described previously. Briefly, the HIV pseudovirus was packed using an Env-coding plasmid, and pSG3ΔEnv was co-transfected into HEK293T cells. pSG3ΔEnv encodes an Env-defective, luciferase-expressing HIV-1 genome. After the pseudoviruses were harvested and filtrated, the amount of pseudoviruses was fixed via P24 antigen, and their infectivity was determined in TZM-bl cells. In order to measure the inhibitory activities of the inhibitors, inhibitors diluted serially 3-fold were mixed with an equal volume of pseudoviruses, and then 100 µL 1 × 10^5/mL TZM-bl cells were added to the mixture and incubated at 37 °C with 5% CO2 for 48 h. After that, TZM-bl cells were lysed using reporter lysis buffer, and IC50 values were calculated according to luciferase activity measured by luciferase assay reagents and a luminescence counter (Promega, Madison, WI, USA)."}, "[2]": {"tested_on": "HIV-1 NL4-3 gp41 I37T pseudovirus", "method": "as §1, §2"}, "[3]": {"tested_on": "HIV-1 NL4-3 gp41 I69V pseudovirus", "method": "as §1, §2"}, "[4]": {"tested_on": "HIV-1 NL4-3 pseudovirus (WT)", "method": "as §2"}, "[5]": {"tested_on": "HIV-1 NL4-3 gp41 L33S/I37T pseudovirus", "method": "(§3) We selected LP-40-induced drug resistance typical point mutations and combination mutation pseudoviruses to evaluate the current representative membrane fusion inhibitors.\nas §2"}, "[6]": {"tested_on": "HIV-1 NL4-3 gp41 L33S/V38A/N42T pseudovirus", "method": "as §3, §2"}, "[7]": {"tested_on": "HIV-1 NL4-3 gp41 NDQEEDYN pseudovirus", "method": "as §3, §2"}, "[8]": {"tested_on": "HIV-1 NL4-3 gp41 NDQEEDYN/L33S/V38A/N42T pseudovirus", "method": "as §3, §2"}, "[9]": {"tested_on": "HIV-1 NL4-3 gp41 V38A/N42T pseudovirus", "method": "as §3, §2"}, "[10]": {"tested_on": "HIV-1 NL4-3 gp41 NDQEEDYN/L33S/I37T pseudovirus", "method": "as §3, §2"}}, "data": [{"smiles": "CC[C@H](C)[C@H](NC(=O)[C@H](C)NC(=O)[C@H](CCCNC(=N)N)NC(=O)[C@H](CC(=O)O)NC(=O)[C@H](Cc1c[nH]c2ccccc12)NC(=O)[C@H](C)NC(=O)[C@H](CCC(=O)O)NC(=O)[C@H](Cc1c[nH]c2ccccc12)NC(=O)[C@@H](NC(=O)[C@@H](NC(C)=O)[C@@H](C)O)[C@@H](C)O)C(=O)N[C@@H](C)C(=O)N[C@@H](CCC(=O)O)C(=O)N[C@@H](Cc1ccc(O)cc1)C(=O)N[C@@H](C)C(=O)N[C@@H](C)C(=O)N[C@@H](CCCNC(=N)N)C(=O)N[C@H](C(=O)N[C@@H](CCC(=O)O)C(=O)N[C@@H](C)C(=O)N[C@@H](CC(C)C)C(=O)N[C@H](C(=O)N[C@@H](CCCNC(=N)N)C(=O)N[C@@H](C)C(=O)N[C@@H](C)C(=O)N[C@@H](CCC(N)=O)C(=O)N[C@@H](CCC(=O)O)C(=O)N[C@@H](CCC(N)=O)C(=O)N[C@@H](CCC(N)=O)C(=O)N[C@@H](CCC(=O)O)C(=O)N[C@@H](CCCCN)C(=O)N[C@@H](CC(N)=O)C(=O)N[C@@H](CCC(=O)O)C(=O)N[C@@H](C)C(=O)N[C@@H](C)C(=O)N[C@@H](CC(C)C)C(=O)N[C@@H](CCCNC(=N)N)C(=O)N[C@@H](CCC(=O)O)C(=O)N[C@@H](CC(C)C)C(N)=O)[C@@H](C)CC)[C@@H](C)CC", "note": "[T2635]", "values": [{"measurement": "Fold change in IC50", "setting": "[1]; L33S relative to WT NL4-3", "value": 1.97, "unit": "fold"}, {"measurement": "IC50", "setting": "[1]; L33S, TZM-bl cells, 48 h, luciferase, means, triplicate, repeated three times", "value": 1.43, "unit": "nM"}, {"measurement": "Fold change in IC50", "setting": "[2]; I37T relative to WT NL4-3", "value": 1.33, "unit": "fold"}, {"measurement": "IC50", "setting": "[2]; I37T, TZM-bl cells, 48 h, luciferase, means, triplicate, repeated three times", "value": 0.97, "unit": "nM"}, {"measurement": "Fold change in IC50", "setting": "[3]; I69V relative to WT NL4-3", "value": 1.04, "unit": "fold"}, {"measurement": "IC50", "setting": "[3]; I69V, TZM-bl cells, 48 h, luciferase, means, triplicate, repeated three times", "value": 0.75, "unit": "nM"}, {"measurement": "IC50", "setting": "[4]; WT NL4-3, TZM-bl cells, 48 h, luciferase, means, triplicate, repeated three times", "value": 0.73, "unit": "nM"}, {"measurement": "Fold change in IC50", "setting": "[4]; WT NL4-3 reference", "value": 1.00, "unit": "fold"}, {"measurement": "Fold change in IC50", "setting": "[5]; L33S/I37T relative to WT NL4-3", "value": 2.07, "unit": "fold"}, {"measurement": "IC50", "setting": "[5]; L33S/I37T, TZM-bl cells, 48 h, luciferase, means, triplicate, repeated three times", "value": 1.51, "unit": "nM"}, {"measurement": "Fold change in IC50", "setting": "[6]; L33S/V38A/N42T relative to WT NL4-3", "value": 1.78, "unit": "fold"}, {"measurement": "IC50", "setting": "[6]; L33S/V38A/N42T, TZM-bl cells, 48 h, luciferase, means, triplicate, repeated three times", "value": 1.3, "unit": "nM"}, {"measurement": "IC50", "setting": "[7]; NDQEEDYN (E109N, N113D, E119Q, D121E, N125E, S129D, H132Y, S133N), TZM-bl cells, 48 h, luciferase, means, triplicate, repeated three times", "value": 1.94, "unit": "nM"}, {"measurement": "Fold change in IC50", "setting": "[7]; NDQEEDYN relative to WT NL4-3", "value": 2.67, "unit": "fold"}, {"measurement": "Fold change in IC50", "setting": "[8]; NDQEEDYN/L33S/V38A/N42T relative to WT NL4-3", "value": 7.85, "unit": "fold"}, {"measurement": "IC50", "setting": "[8]; NDQEEDYN/L33S/V38A/N42T, TZM-bl cells, 48 h, luciferase, means, triplicate, repeated three times", "value": 5.73, "unit": "nM"}, {"measurement": "Fold change in IC50", "setting": "[9]; V38A/N42T relative to WT NL4-3", "value": 0.77, "unit": "fold"}, {"measurement": "IC50", "setting": "[9]; V38A/N42T, TZM-bl cells, 48 h, luciferase, means, triplicate, repeated three times", "value": 0.56, "unit": "nM"}, {"measurement": "Fold change in IC50", "setting": "[10]; NDQEEDYN/L33S/I37T relative to WT NL4-3", "value": 7.49, "unit": "fold"}, {"measurement": "IC50", "setting": "[10]; NDQEEDYN/L33S/I37T, TZM-bl cells, 48 h, luciferase, means, triplicate, repeated three times", "value": 5.44, "unit": "nM"}]}]}
